Results on 18 compounds are retold here after US7691848B2, “Pyrrolobenzodiazepine arylcarboxamides and derivatives thereof as follicle-stimulating hormone receptor antagonists” (Wyeth, priority 2005, dated 2010).

In general, IC50 refers to the concentration that gives 50% inhibition. What is called melting point is the temperature, or range, at which the solid turns liquid. Usually inhibition stands for the share of the control response that was lost under treatment.

For data set [1], the target named is T1, human FSH receptor (Homo sapiens, UniProt P23945).
T1 construct: host or cells: CHO-K1 (CHO FSH-R 6CRE-Luc, 1D7 cells)
T1 sequence (P23945 18-695): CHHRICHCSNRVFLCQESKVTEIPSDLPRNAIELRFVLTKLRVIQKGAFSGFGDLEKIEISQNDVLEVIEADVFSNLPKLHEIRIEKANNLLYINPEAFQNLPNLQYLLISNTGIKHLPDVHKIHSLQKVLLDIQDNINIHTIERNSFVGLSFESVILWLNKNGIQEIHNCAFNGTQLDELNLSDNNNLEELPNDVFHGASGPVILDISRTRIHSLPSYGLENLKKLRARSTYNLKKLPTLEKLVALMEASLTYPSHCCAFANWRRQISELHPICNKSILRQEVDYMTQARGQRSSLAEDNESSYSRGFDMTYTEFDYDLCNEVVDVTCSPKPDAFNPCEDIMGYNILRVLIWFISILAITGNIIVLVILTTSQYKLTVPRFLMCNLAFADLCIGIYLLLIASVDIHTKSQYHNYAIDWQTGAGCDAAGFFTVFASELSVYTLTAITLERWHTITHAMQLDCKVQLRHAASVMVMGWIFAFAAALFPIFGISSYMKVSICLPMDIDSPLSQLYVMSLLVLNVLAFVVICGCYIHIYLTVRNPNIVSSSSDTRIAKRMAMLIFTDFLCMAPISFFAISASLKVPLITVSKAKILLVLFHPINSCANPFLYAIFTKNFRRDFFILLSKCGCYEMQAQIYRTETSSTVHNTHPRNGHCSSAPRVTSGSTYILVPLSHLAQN
Nature of the data set: Follicle-Stimulating Hormone Receptor-Dependent Cre-Luciferase Reporter Gene Assay (CHO FSH-R 6CRE-Luc cells). Format: cell-based. Conditions: for IC50: dose-response format, in presence of EC50 of purified human FSH; for inhibition at 30 µM: 2-dose format, concentration in parentheses 30 μM, inhibition of the response to EC50 of FSH. The text has this:
Follicle-Stimulating Hormone Receptor-Dependent Cre-Luciferase Reporter Gene Assay for the Identification of Follicle-Stimulating Hormone (FSH) Antagonists
A Chinese hamster ovarian cell line that stably produces the human FSH receptor and a luciferase reporter gene regulated by cAMP response elements was used to identify and determine the relative potencies of human FSH receptor antagonists. See for example, Kelton, C. A., et al. Mol. Cell. Endocrinol. 89:141-151 (1992), Tilly, J. L., et al. Endocrinology 131:799-806(1992), and George, S. E., et al. J. Biomol. Screening 2:235-240 (1997).
Compound Vehicle: Stock compounds were solubilized in an appropriate vehicle, e.g., phosphate buffered saline (PBS) or dimethyl sulfoxide (DMSO), at 30 mM. The compounds were subsequently diluted in DMSO to working dilutions of 1 and 20 or 30 mM for 2-dose testing format and 1 μM-10 mM for dose-response format. The DMSO dilutions were diluted 500-fold in sterile growth medium [D-MEM/F-12 (GIBCO/BRL; Grand Island, NY) containing 15 mM HEPES, 2 mM 1-glutamine, pyridoxine hydrochloride, phenol red and 5% FetalClone® II (HyClone Laboratories, Inc; Logan, Utah), 0.2% DMSO, 100 units penicillin G/ml, and 100 μg streptomycin sulfate/ml (GIBCO/BRL)]. The concentration of the vehicle in each of the compound dilutions was the same.
Positive Controls: Purified human FSH (>98%) was purchased from Cortex Biochem, Inc. (San Leandro, Calif.) and 3-[(2S*,5R*)-5-{[2-(1H-Indol-3-yl)-ethylcarbamoyl]-methyl}-4-oxo-2-(5-phenylethynyl-thiophen-2-yl)-thiazolidin-3-yl]-benzamide (an FSH-R thiazolidinone antagonist) was prepared by processes described by R. A. Scheuerman et al. in U.S. Pat. No. 6,426,357 (Affymax).
The CHO FSH-R 6CRE-Luc cells (1D7 cells) were obtained from Affymax (Palo Alto, Calif.). These Chinese hamster ovary cells (CHO-K1) were engineered genetically to stably express the recombinant human FSH receptor gene and a luciferase reporter gene under the regulation of 6 copies of a cAMP response element. The cells were plated one day prior to treatment into 96-well white opaque plates at a density of 50,000 cells/100 μl/well in growth medium. On the day of treatment, the growth medium was removed from the wells by aspiration and 50 μl of fresh growth medium was added to each well. The cells were incubated at 37° C. in a humidified incubator with 5% CO2/95% air.
The treated cells were incubated for 4 hours at 37° C. in a humidified incubator with 5% CO2/95% air. At the end of the incubation period, luciferase activity was measured by chemiluminescence using a commercially available kit (LucScreen, Tropix, Inc., Bedford, Mass.) according to the manufacturer's specifications, except that Buffer 1 and Buffer 2 were mixed together in equal proportion prior to the addition of 100 μl of the combined reagents to each well. Chemiluminescence was detected using a luminometer (EG & G Berthold Microlumat LB 96 P, Wallac, Gaithersburg, Md.) with chemiluminescence measured for 1 sec/well. Background luminescence was measured for each well prior to the addition of the LucScreen reagent.
In the 96-well 2-dose format, each compound was tested in duplicate at each dose. […] One plate was used to test a maximum of 22 compounds.
The EC50 of purified human FSH alone was tested in triplicate with each test compound. The doses chosen to test each compound were extrapolated from the initial 2-dose screening process. Along with the test compounds, purified human FSH also was tested in a dose response (0.03, 0.1, 0.3, 1, 3, 10, and 30 ng/ml) for a positive control and quality control. One plate was used for 3 test compounds and the FSH positive control.
Luciferase activity is expressed as relative light units/sec/well. Luciferase activity in antagonist was compared to the appropriate negative and positive controls. For 2-dose testing, results are reported as luciferase activity and are expressed as percent inhibition of the response obtained from the EC50 of FSH.
On the technique in general: A reporter such as luciferase makes a cellular process visible.

Some results are limits rather than exact numbers.

On to `O=C(NCCc1ccc(O)cc1)c1ccc2n1Cc1ccccc1N(C(=O)COc1ccc(Cl)cc1)C2` [Example 68, 10-[(4-CHLOROPHENOXY)ACETYL]-N-[2-(4-HYDROXYPHENYL)ETHYL]-10,11-DIHYDRO-5H-PYRROLO[2,1-C][1,4]BENZODIAZEPINE-3-CARBOXAMIDE], for which the melting point lay within 206 to 207 °C. For the same compound, the IC50 in data set [1] was found to be 13.2 µM.

For `O=C(NCc1ccc2c(c1)OCO2)c1ccc2n1Cc1ccccc1N(C(=O)COc1ccc(Cl)cc1)C2` [Example 69], the melting point was in the range of 168 to 169 °C. Moreover, the inhibition at 30 µM in data set [1] was 21%.

Turning to `Cc1ccc(CNC(=O)c2ccc3n2Cc2ccccc2N(C(=O)COc2ccc(Cl)cc2)C3)cc1` [Example 70, 10-[(4-CHLOROPHENOXY)ACETYL]-N-(4-METHYLBENZYL)-10,11-DIHYDRO-5H-PYRROLO[2,1-C][1,4]BENZODIAZEPINE-3-CARBOXAMIDE], the melting point was 174 to 176 °C. In data set [1], the inhibition at 30 µM is 17%.

In turn, `Cc1cccc(CNC(=O)c2ccc3n2Cc2ccccc2N(C(=O)COc2ccc(Cl)cc2)C3)c1` [Example 71, 10-[(4-CHLOROPHENOXY)ACETYL]-N-(3-METHYLBENZYL)-10,11-DIHYDRO-5H-PYRROLO[2,1-C][1,4]BENZODIAZEPINE-3-CARBOXAMIDE] gave a melting point of 130 to 131 °C. The inhibition at 30 µM in data set [1] is 7%.

`O=C(NCc1cccc(C(F)(F)F)c1)c1ccc2n1Cc1ccccc1N(C(=O)COc1ccc(Cl)cc1)C2` [Example 72, 10-[(4-CHLOROPHENOXY)ACETYL]-N-[3-(TRIFLUOROMETHYL)BENZYL]-10,11-DIHYDRO-5H-PYRROLO[2,1-C][1,4]BENZODIAZEPINE-3-CARBOXAMIDE]: the melting point is 143 to 145 °C. In data set [1], the 50% inhibitory concentration (IC50) is greater than 30 µM.

Take `O=C(NCC(O)c1ccccc1)c1ccc2n1Cc1ccccc1N(C(=O)COc1ccc(Cl)cc1)C2` (stereo not drawn) [Example 73]: the melting point is 157 to 158 °C. In addition, in data set [1], the IC50 was found to be 25.1 µM.

Take `O=C(Nc1ccc(-c2ccccc2)cc1)c1ccc2n1Cc1ccccc1N(C(=O)COc1ccc(Cl)cc1)C2` [Example 74, N-(1,1′-BIPHENYL-4-YL)-10-[(4-CHLOROPHENOXY)ACETYL]-10,11-DIHYDRO-5H-PYRROLO[2,1-C][1,4]BENZODIAZEPINE-3-CARBOXAMIDE]: the melting point fell in the range of 201 to 202 °C. In addition, the inhibition at 30 µM in data set [1] amounted to 6%.

As for `COC(=O)c1ccc(CNC(=O)c2ccc3n2Cc2ccccc2N(C(=O)COc2ccc(Cl)cc2C)C3)cc1` [Example 77, METHYL 4-{[({10-[(4-CHLORO-2-METHYLPHENOXY)ACETYL]-10,11-DIHYDRO-5H-PYRROLO[2, 1-C][1,4]BENZODIAZEPIN-3-YL}CARBONYL)AMINO]METHYL}BENZOATE], the melting point was 165 to 167 °C. For the same compound, the inhibition at 30 µM in data set [1] was 3.5%.

In turn, `COc1cc(CNC(=O)c2ccc3n2Cc2ccccc2N(C(=O)COc2ccc(Cl)cc2C)C3)ccc1O` [Example 78, 10-[(4-CHLORO-2-METHYLPHENOXY)ACETYL]-N-(4-HYDROXY-3-METHOXYBENZYL)-10,11-DIHYDRO-5H-PYRROLO[2,1-C][1,4]BENZODIAZEPINE-3-CARBOXAMIDE] registered a melting point of 167 to 168 °C. Further, in data set [1], the inhibition at 30 µM worked out at 33%.

With `Cc1cc(-c2ccccc2C)ccc1NC(=O)c1ccc2n1Cc1ccccc1N(C(=O)COc1ccc(Cl)cc1)C2` [Example 79], the melting point is 159 to 161 °C. For the same compound, the inhibition at 30 µM in data set [1] was found to be 13%.

As for `O=C(NCc1ccc(Cl)c(Cl)c1)c1ccc2n1Cc1ccccc1N(C(=O)CSc1ccc(Br)cc1)C2` [Example 81, 10-{[(4-BROMOPHENYL)THIO]ACETYL}-N-(3,4-DICHLOROBENZYL)-10,11-DIHYDRO-5H-PYRROLO[2,1-C][1,4]BENZODIAZEPINE-3-CARBOXAMIDE], the melting point came to 150 °C. In data set [1], the 50% inhibitory concentration (IC50) is greater than 30 µM.

In the case of `COc1cc(CNC(=O)c2ccc3n2Cc2ccccc2N(C(=O)CSc2ccc(Br)cc2)C3)ccc1O` [Example 82, 10-{[(4-BROMOPHENYL)THIO]ACETYL}-N-(4-HYDROXY-3-METHOXYBENZYL)-10,11-DIHYDRO-5H-PYRROLO[2,1-C][1,4]BENZODIAZEPINE-3-CARBOXAMIDE], the melting point amounted to 168 °C. In data set [1], the inhibition at 30 µM was 37%.

`Cc1ccc(CNC(=O)c2ccc3n2Cc2ccccc2N(C(=O)CSc2ccc(Br)cc2)C3)cc1` [Example 83, 10-{[(4-BROMOPHENYL)THIO]ACETYL}-N-(4-METHYLBENZYL)-10,11-DIHYDRO-5H-PYRROLO[2,1-C][1,4]BENZODIAZEPINE-3-CARBOXAMIDE] came in with a melting point of 131 to 132 °C. The inhibition at 30 µM in data set [1] turned out to be 24%.

`O=C(NCc1ccc2c(c1)OCO2)c1ccc2n1Cc1ccccc1N(C(=O)CSc1ccc(Br)cc1)C2` [Example 84] showed a melting point of 154 to 155 °C. Besides, in data set [1], the inhibition at 30 µM came to 27%.

Take `O=C(NCc1cccc(C(F)(F)F)c1)c1ccc2n1Cc1ccccc1N(C(=O)CSc1ccc(Br)cc1)C2` [Example 85, 10-{[(4-BROMOPHENYL)THIO]ACETYL}-N-[3-(TRIFLUOROMETHYL)BENZYL]-10,11-DIHYDRO-5H-PYRROLO[2,1-C][1,4]BENZODIAZEPINE-3-CARBOXAMIDE]: the melting point was determined as 102 °C. Besides, the inhibition at 30 µM in data set [1] was determined as 24%.

Take `O=C(NCCc1ccc(O)cc1)c1ccc2n1Cc1ccccc1N(C(=O)CSc1ccc(Br)cc1)C2` [Example 86, 10-{[(4-BROMOPHENYL)THIO]ACETYL}-N-[2-(4-HYDROXYPHENYL)ETHYL]-10,11-DIHYDRO-5H-PYRROLO[2,1-C][1,4]BENZODIAZEPINE-3-CARBOXAMIDE]: the melting point lay in the range of 168 to 169 °C. Also, the inhibition at 30 µM in data set [1] worked out at 35%.

In turn, `O=C(NC1CCCc2ccccc21)c1ccc2n1Cc1ccccc1N(C(=O)CSc1ccc(Br)cc1)C2` (stereo not drawn) [Example 87, 10-{[(4-BROMOPHENYL)THIO]ACETYL}-N-(1,2,3,4-TETRAHYDRONAPHTHALEN-1-YL)-10,11-DIHYDRO-5H-PYRROLO[2,1-C][1,4]BENZODIAZEPINE-3-CARBOXAMIDE] registered a melting point of 163 to 165 °C. The inhibition at 30 µM in data set [1] is 3%.

Turning to `Cc1ccccc1-c1ccc(C(=O)N2Cc3ccc(C(=O)NCc4ccc(C(=O)c5ccccc5)cc4)n3Cc3ccccc32)cc1C` [Example 88], the melting point lay within 148 to 150 °C. Also, the half-maximal inhibitory concentration (IC50) in data set [1] is greater than 30 µM.
